From EP0239528A1, “13-Beta-carbamoyloxy-milbemicyne derivatives for fighting harmful animal and plant parasites” (CIBA-GEIGY AG, priority 1986, dated 1987) come the findings set out here.

Format in all cases: in vivo
Experiment [1] concerns L₁-Larven von Lucilia sericata. Put plainly: B-3 action against L1 larvae in larval culture medium. Particulars: 96 h, reduced concentration of 100 ppm, after 4 days, read-out: Wirkung (Mortalitätsrate). The protocol:
B-3. Wirkung gegen L₁-Larven von Lucilia sericata
1 ml einer wässrigen Suspension der zu prüfenden Aktivsubstanz werden so mit 3 ml eines speziellen Larvenzuchtmediums bei ca. 50°C vermischt, dass ein Homogenisat von wahlweise 250 ppm oder […] Wirkstoffgehalt entsteht. In jede Reagenzglas-Probe werden ca. 30 Lucilia-Larven (L₁) eingesetzt. Nach 4 Tagen wird die Mortalitätsrate bestimmt. Die Verbindungen aus den Herstellungsbeispielen zeigen bei 250 ppm eine Wirkung von 100 %, wobei die Verbindungen aus den Herstellungsbeispiele, wie z.B. E8, E6, E2, E14, E22, E28, E26, E30, E32, E34, E36 und E38, diese Wirkung auch noch bei der reduzierten Wirkstoffkonzentration von 100 ppm erzielten.

The subject of the next experiment is Aphis craccivora. Nature of the experiment: B-6 contact action on infested pea seedlings. Particulars: Aphis craccivora, 72 h; 25 ppm, after 3 days; read-out: Abtötung. An excerpt:
B-6. Kontaktwirkung auf Aphis craccivora
Erbsenkeimlinge, die mit sämtlichen Entwicklungsstadien der Laus infiziert sind, werden mit einer aus einem Emulsionskonzentrat hergestellten Wirkstofflösung besprüht, die wahlweise 50 ppm, 25 ppm oder 12,5 ppm Wirkstoff enthält. Nach 3 Tagen wird auf mehr als 80 % tote bzw. abgefallene Blattläuse ausgewertet. Nur bei dieser Wirkungshöhe wird ein Präparat als wirksam eingestuft.

Another experiment relates to Spodoptera littoralis. Nature of the experiment: B-1 insecticidal stomach-poison action on sprayed cotton plants. Particulars: 12,5 ppm active ingredient, after 24 hours, L1 larvae on cotton plants. The protocol:
B-1. Insektizide Frassgift-Wirkung bei Spodoptera littoralis
Eingetopfe Baumwollpflanzen im 5-Blatt-Stadium werden mit einer acetonisch/wässrigen Versuchslösung besprüht, die 3, 12,5 oder 50 ppm der zu prüfenden Verbindung enthält.
Nach dem Antrocknen des Belags werden die Pflanzen mit ca. 30 Larven (L₁-Stadium) von Spodoptera littoralis besetzt. Pro Versuchsverbindung und pro Test-Spezies verwendet man zwei Pflanzen. Der Versuch wird bei ca. 24°C und 60 % relativer Luftfeuchtigkeit durchgeführt Auswertungen und Zwischenauswertungen auf moribunde Tiere, Wachstum und Larven und Frasschäden erfolgen nach 24 Stunden, 48 Stunden und 72 Stunden.

Experiment [2] deals with OP-sensible Tetranychus urticae. Nature of the experiment: B-2 action against plant-damaging acarids on bean plants. Particulars: 1,6 ppm active ingredient, evaluation after seven days. An excerpt: B-2. Wirkung gegen pflanzenschädigende Akariden OP-sensible Tetranychus urticae
Die Primärblätter von Bohnenpflanzen (Phaseolus vulgaris) werden 16 Stunden vor dem Versuch mit einem durch T. urticae infestierten, aus einer Massenzucht stammenden Blattstück belegt. Die so mit allen Milben-Stadien infestierten Pflanzen werden nach Entfernung des Blattstücks mit einer Versuchslösung bis zur Tropfnässe besprüht, die wahlweise 0,4 ppm oder 1,6 ppm der zu prüfenden Verbindung enthält. Die Temperatur in der Gewächshauskabine beträgt ca. 25°C.
Nach sieben Tagen wird unter dem Binokular auf Prozentsatz mobiler Stadien (Adulte und Nymphen) und auf vorhandene Eier ausgewertet.

The next experiment relates to Aedes aegypti. Put plainly: B-7 larvicidal action in water. Conditions: 3,3 ppm, after one day. The protocol: B-7. Larvizidwirkung gegen Aedes aegypti
Auf die Oberfläche von 150 ml Wasser, das sich in einem Behälter befindet, wird soviel einer 0,1 %igen acetonischen Lösung des Wirkstoffes pipettiert, dass Konzentrationen von wahlweise 10 ppm, 3,3 ppm und 1,6 ppm erhalten werden. Nach Verdunsten des Acetons wird der Behälter mit ca. 30-40 3 Tage alten Aedes-Larven beschickt. Nach 1, 2 und 5 Tagen wird die Mortalität geprüft.

Regarding `CCC1OC2(CCC1C)CC1CC(CC=C(C)C(OC(=O)Nc3ccccc3C(F)(F)F)C(C)C=CC=C3COC4C(O)C(C)=CC(C(=O)O1)C34O)O2` (stereo not drawn) [Beispiel E22, 13β-N-(2-Trifluorphenyl)-carbamoyloxy-milbemycin A₄], the mortality at 100 ppm in experiment [1] came to 100%. Also, in the experiment on Aphis craccivora, the mortality at 25 ppm stood at 100%. In addition, the Abtötung result (in the experiment on Spodoptera littoralis; in experiment [2]) was “vollständige Abtötung” each time. In the experiment on Aedes aegypti, the “Abtötung sämtlicher Larven” value is “vollständige Abtötung”.
